System: serum uric acid (sUA) levels in hyperuricemic patients
Assay: PRESTO study: change in serum uric acid in hyperuricemic patients (baseline >=8 mg/dL), Tranilast twice daily for 1 or 3 months
Assay type: in vivo, human
Procedure: The PRESTO (Prevention of Restenosis with Tranilast and its Outcomes) study was a multicenter study of ˜11,500 patients undergoing percutaneous transluminal coronary revascularization (PTCR) with or without stenting for single or multiple vessels over a 9-month period. The study compared the composite clinical event rate of death, myocardial infarction, or need for ischemia-driven target vessel revascularization in patients treated with Tranilast (300 and 450 mg twice daily) for 1 or 3 months versus placebo. Description of the study protocol and patient population can be found in Holmes et al., The PRESTO (Prevention of Restenosis with Tranilast and its Outcomes) protocol: A double-blind, placebo-controlled trial, Am Heart J 2000; 139:23-31; and Holmes et al., Results of Prevention of REStenosis with Tranilast and its Outcomes (PRESTO) Trial, Circulation. 2002; 106:1243, both of which are incorporated by reference herein in their entirety.
Gout was a contraindication for patient enrollment in the PRESTO trial. Nevertheless, 1100 patients enrolled in the trial were identified with baseline hyperuricemia defined as initial serum uric acid (sUA) levels greater than or equal to 7 mg/dL. Of these, approximately 300 participants had baseline serum uric acid levels greater than or equal to 8 mg/dL. […] As indicated in FIG. 1 and Table 4, some patients were treated with placebo, some patients were treated with Tranilast for 4 weeks followed by placebo, and some patients were treated with Tranilast for 12 weeks.

[1] = 1M TRAN 300 mg/2M PLACEBO, Follow-Up
[2] = 1M TRAN 300 mg/2M PLACEBO, Post-PTCR
[3] = 1M TRAN 300 mg/2M PLACEBO, Week 1
[4] = 1M TRAN 300 mg/2M PLACEBO, Week 2
[5] = 1M TRAN 300 mg/2M PLACEBO, Week 3
[6] = 1M TRAN 300 mg/2M PLACEBO, Week 4
[7] = 1M TRAN 300 mg/2M PLACEBO, Week 6
[8] = 1M TRAN 300 mg/2M PLACEBO, Week 8
[9] = 1M TRAN 300 mg/2M PLACEBO, Week 10
[10] = 1M TRAN 300 mg/2M PLACEBO, Week 12
[11] = 1M TRAN 450 mg/2M PLACEBO, Follow-Up
[12] = 1M TRAN 450 mg/2M PLACEBO, Post-PTCR
[13] = 1M TRAN 450 mg/2M PLACEBO, Week 1
[14] = 1M TRAN 450 mg/2M PLACEBO, Week 2
[15] = 1M TRAN 450 mg/2M PLACEBO, Week 3
[16] = 1M TRAN 450 mg/2M PLACEBO, Week 4
[17] = 1M TRAN 450 mg/2M PLACEBO, Week 6
[18] = 1M TRAN 450 mg/2M PLACEBO, Week 8
[19] = 1M TRAN 450 mg/2M PLACEBO, Week 10
[20] = 1M TRAN 450 mg/2M PLACEBO, Week 12

In the case of `COc1ccc(/C=C/C(=O)Nc2ccccc2C(=O)O)cc1OC` [Tranilast, 2-[[3-(3,4-dimethoxyphenyl)-1-oxo-2-propenyl]amino]benzoic acid], the “Change from Baseline in Uric Acid, Max” value [1] is reported as 2.00 mg/dL, the “Change from Baseline in Uric Acid, Mean (SD)” value (“Change from Baseline … (SD)” below) [1] is reported as −0.64 (1.351) mg/dL and the “Change from Baseline in Uric Acid, Median” value (shortened to “Change … Median”) [1] is reported as -0.86 mg/dL. For the same compound, the “Change from Baseline in Uric Acid, Min” value [1] was -3.30 mg/dL, the “Change from Baseline in Uric Acid, Max” value [2] was 2.03 mg/dL and the “Change from Baseline … (SD)” value [2] was −1.33 (1.220) mg/dL. For the same compound, the “Change … Median” value [2] was -1.30 mg/dL, the “Change from Baseline in Uric Acid, Min” value [2] was -4.54 mg/dL and the “Change from Baseline in Uric Acid, Max” value [3] was 2.70 mg/dL. The “Change from Baseline … (SD)” value [3] was −2.31 (1.839) mg/dL, the “Change … Median” value [3] was -2.51 mg/dL and the “Change from Baseline in Uric Acid, Min” value [3] was -6.05 mg/dL. The “Change from Baseline in Uric Acid, Max” value [4] was 1.80 mg/dL, the “Change from Baseline … (SD)” value [4] was −2.61 (2.149) mg/dL and the “Change … Median” value [4] was -3.00 mg/dL. The “Change from Baseline in Uric Acid, Min” value [4] was -7.05 mg/dL, the “Change from Baseline in Uric Acid, Max” value [5] was 3.50 mg/dL and the “Change from Baseline … (SD)” value [5] was −2.43 (2.143) mg/dL. The “Change … Median” value [5] was -2.70 mg/dL, the “Change from Baseline in Uric Acid, Min” value [5] was -6.61 mg/dL and the “Change from Baseline in Uric Acid, Max” value [6] was 2.60 mg/dL. For the same compound, the “Change from Baseline … (SD)” value [6] was −2.30 (1.953) mg/dL, the “Change … Median” value [6] was -2.40 mg/dL and the “Change from Baseline in Uric Acid, Min” value [6] was -7.40 mg/dL. The “Change from Baseline in Uric Acid, Max” value [7] was 2.40 mg/dL, the “Change from Baseline … (SD)” value [7] was −0.82 (1.416) mg/dL and the “Change … Median” value [7] was -0.70 mg/dL. The “Change from Baseline in Uric Acid, Min” value [7] was -5.21 mg/dL, the “Change from Baseline in Uric Acid, Max” value [8] was 1.55 mg/dL and the “Change from Baseline … (SD)” value [8] was −0.63 (1.371) mg/dL. For the same compound, the “Change … Median” value [8] was -0.70 mg/dL, the “Change from Baseline in Uric Acid, Min” value [8] was -4.54 mg/dL and the “Change from Baseline in Uric Acid, Max” value [9] was 2.10 mg/dL. The “Change from Baseline … (SD)” value [9] was −0.79 (1.195) mg/dL, the “Change … Median” value [9] was -0.83 mg/dL and the “Change from Baseline in Uric Acid, Min” value [9] was -3.53 mg/dL. For the same compound, the “Change from Baseline in Uric Acid, Max” value [10] was 1.50 mg/dL, the “Change from Baseline … (SD)” value [10] was −0.75 (1.500) mg/dL and the “Change … Median” value [10] was -0.52 mg/dL. The “Change from Baseline in Uric Acid, Min” value [10] was -4.90 mg/dL, the “Change from Baseline in Uric Acid, Max” value [11] was 1.20 mg/dL and the “Change from Baseline … (SD)” value [11] was −0.53 (1.249) mg/dL. The “Change … Median” value [11] was -0.40 mg/dL, the “Change from Baseline in Uric Acid, Min” value [11] was -4.40 mg/dL and the “Change from Baseline in Uric Acid, Max” value [12] was 0.70 mg/dL. For the same compound, the “Change from Baseline … (SD)” value [12] was −2.00 (1.454) mg/dL, the “Change … Median” value [12] was -1.96 mg/dL and the “Change from Baseline in Uric Acid, Min” value [12] was -5.21 mg/dL. The “Change from Baseline in Uric Acid, Max” value [13] was 2.00 mg/dL, the “Change from Baseline … (SD)” value [13] was −3.66 (1.902) mg/dL and the “Change … Median” value [13] was -3.95 mg/dL. For the same compound, the “Change from Baseline in Uric Acid, Min” value [13] was -8.00 mg/dL, the “Change from Baseline in Uric Acid, Max” value [14] was 1.00 mg/dL and the “Change from Baseline … (SD)” value [14] was −3.43 (2.176) mg/dL. For the same compound, the “Change … Median” value [14] was -3.50 mg/dL, the “Change from Baseline in Uric Acid, Min” value [14] was -8.40 mg/dL and the “Change from Baseline in Uric Acid, Max” value [15] was -0.70 mg/dL. The “Change from Baseline … (SD)” value [15] was −4.19 (1.978) mg/dL, the “Change … Median” value [15] was -4.27 mg/dL and the “Change from Baseline in Uric Acid, Min” value [15] was -7.90 mg/dL. For the same compound, the “Change from Baseline in Uric Acid, Max” value [16] was 1.00 mg/dL, the “Change from Baseline … (SD)” value [16] was −3.52 (2.127) mg/dL and the “Change … Median” value [16] was -4.03 mg/dL. For the same compound, the “Change from Baseline in Uric Acid, Min” value [16] was -7.65 mg/dL, the “Change from Baseline in Uric Acid, Max” value [17] was 2.50 mg/dL and the “Change from Baseline … (SD)” value [17] was −0.29 (1.188) mg/dL. The “Change … Median” value [17] was -0.30 mg/dL, the “Change from Baseline in Uric Acid, Min” value [17] was -3.20 mg/dL and the “Change from Baseline in Uric Acid, Max” value [18] was 3.60 mg/dL. The “Change from Baseline … (SD)” value [18] was −0.49 (2.142) mg/dL, the “Change … Median” value [18] was -0.10 mg/dL and the “Change from Baseline in Uric Acid, Min” value [18] was -9.70 mg/dL. For the same compound, the “Change from Baseline in Uric Acid, Max” value [19] was 4.60 mg/dL, the “Change from Baseline … (SD)” value [19] was −0.46 (1.494) mg/dL and the “Change … Median” value [19] was -0.38 mg/dL. The “Change from Baseline in Uric Acid, Min” value [19] was -4.40 mg/dL, the “Change from Baseline in Uric Acid, Max” value [20] was 2.70 mg/dL and the “Change from Baseline … (SD)” value [20] was −0.56 (1.298) mg/dL. For the same compound, the “Change … Median” value [20] was -0.34 mg/dL and the “Change from Baseline in Uric Acid, Min” value [20] was -3.50 mg/dL.

From patent US20100160351A1, “PHARMACEUTICAL COMPOSITIONS AND METHODS FOR TREATING HYPERURICEMIA AND RELATED DISORDERS” (NUON THERAPEUTICS, INC., priority 2008, published 2010)
